Source: ChEMBL document CHEMBL3297717, “Synthesis and potent ionophoric activity of a squaramide-linked bis(choloyl) conjugate” (Bioorg Med Chem Lett, 2014)
Calls of active or inactive are those of the source. The rule behind the calls is not given here.

Legend:
[1] = Ionophoric activity across egg-yolk L-alpha-phosphatidylcholine-based liposomal membrane assessed as induction of pH discharge in membrane by measuring initial rate constant after 21 mins by Hill plot analysis
[2] = Ionophoric activity across egg-yolk L-alpha-phosphatidylcholine-based liposomal membrane assessed as induction of pH discharge in membrane at 3 mol% after 20 mins by pyramine dye-based fluorescence assay in presence of NaNO3
[3] = Ionophoric activity across egg-yolk L-alpha-phosphatidylcholine-based liposomal membrane assessed as induction of pH discharge in membrane at 3 mol% after 20 mins by pyramine dye-based fluorescence assay in presence of NaCl
[4] = Ionophoric activity across egg-yolk L-alpha-phosphatidylcholine-based liposomal membrane assessed as chloride efflux after 5 mins
[5] = Ionophoric activity across egg-yolk L-alpha-phosphatidylcholine-based liposomal membrane assessed as induction of pH discharge in membrane at 3 mol% after 20 mins by pyramine dye-based fluorescence assay in presence of LiCl
[6] = Ionophoric activity across egg-yolk L-alpha-phosphatidylcholine-based liposomal membrane assessed as induction of pH discharge in membrane at 3 mol% after 20 mins by pyramine dye-based fluorescence assay in presence of CsCl
[7] = Ionophoric activity across egg-yolk L-alpha-phosphatidylcholine-based liposomal membrane assessed as induction of pH discharge in membrane at 3 mol% after 20 mins by pyramine dye-based fluorescence assay in presence of NaI
[8] = Ionophoric activity across egg-yolk L-alpha-phosphatidylcholine-based liposomal membrane assessed as induction of pH discharge in membrane at 1 to 5 mol% after 21 mins by pyramine dye-based fluorescence assay
[9] = Ionophoric activity across egg-yolk L-alpha-phosphatidylcholine-based liposomal membrane assessed as induction of pH discharge in membrane at 3 mol% after 20 mins by pyramine dye-based fluorescence assay in presence of NaBr
[10] = Ionophoric activity across egg-yolk L-alpha-phosphatidylcholine-based liposomal membrane assessed as induction of pH discharge in membrane at 3 mol% after 20 mins by pyramine dye-based fluorescence assay in presence of KCl
[11] = Ionophoric activity across egg-yolk L-alpha-phosphatidylcholine-based liposomal membrane assessed as induction of pH discharge in membrane at 3 mol% after 20 mins by pyramine dye-based fluorescence assay in presence of RbCl
[12] = Ionophoric activity across egg-yolk L-alpha-phosphatidylcholine-based liposomal membrane dispersed in HEPES buffer containing Na2SO4 assessed as chloride efflux at 3 mol% after 5 mins
[13] = Ionophoric activity across egg-yolk L-alpha-phosphatidylcholine-based liposomal membrane assessed as induction of pH discharge in membrane after 21 mins by pyramine dye-based fluorescence assay

For `C[C@H](CCC(=O)N[C@@H](CCCCN)C(=O)NCc1ccc(CNC(=O)[C@H](CCCCN)NC(=O)CC[C@@H](C)[C@H]2CC[C@H]3[C@@H]4[C@H](O)C[C@@H]5C[C@H](O)CC[C@]5(C)[C@H]4C[C@H](O)[C@]23C)cc1)[C@H]1CC[C@H]2[C@@H]3[C@H](O)C[C@@H]4C[C@H](O)CC[C@]4(C)[C@H]3C[C@H](O)[C@]12C`, the Kin [1] was 5.52 ×10⁻² /min.

Work on `C[C@H](CCC(=O)NCc1ccc(CNC(=O)CC[C@@H](C)[C@H]2CC[C@H]3[C@@H]4[C@H](O)C[C@@H]5C[C@H](O)CC[C@]5(C)[C@H]4C[C@H](O)[C@]23C)cc1)[C@H]1CC[C@H]2[C@@H]3[C@H](O)C[C@@H]4C[C@H](O)CC[C@]4(C)[C@H]3C[C@H](O)[C@]12C` yielded a Kin [1] of 2.23 ×10⁻² /min.

In the case of `C[C@H](CCC(=O)Nc1ccc(Nc2c(Nc3ccc(NC(=O)CC[C@@H](C)[C@H]4CC[C@H]5[C@@H]6[C@H](O)C[C@@H]7C[C@H](O)CC[C@]7(C)[C@H]6C[C@H](O)[C@]45C)cc3)c(=O)c2=O)cc1)[C@H]1CC[C@H]2[C@@H]3[C@H](O)C[C@@H]4C[C@H](O)CC[C@]4(C)[C@H]3C[C@H](O)[C@]12C`, the Activity [2] is reported as “inactive”, the Activity [3] is reported as “Active” and the Activity [4] is reported as “Dose-dependent effect”. The Activity [5] was “Active”, the Activity [6] was “Active” and the Activity [7] was “inactive”. The Activity [8] was “Active”, the Activity [9] was “inactive” and the Activity [10] was “Active”. For the same molecule, the Kin [1] was 0.6 min⁻¹, the Activity [11] was “Active” and the Activity [12] was “Active”. For the same molecule, the EC50 [13] was 3.82 mol%.
